Results on three molecules are retold here after ChEMBL document CHEMBL3879906 (2013).

Calls of active or inactive are those of the source. The calls are words filed in the database; no cut-off is given here.

The test system of series [1] is Canis familiaris. Nature of the series: Anti-atrial fibrillation activity in bilateral vagal stimulated anesthetized dog assessed as time duration of atrial fibrillation at 100 ms of basic cycle length at 5 mg/kg administered intraduodenally measured after 2 hrs. Format: functional, Canis lupus familiaris.
Series [2] deals with Canis familiaris. In words: Induction of QTc interval prolongation in anesthetized dog at 5 mg/kg administered intraduodenally after 1 to 4 hrs. Format: organism-based, Canis lupus familiaris. The note with it: in vivo, other.
The test system of series [3] is Cardiac muscle cell. In words: Increase in reverse rate-dependent action potential duration at 75% repolarization in human atrial myocytes at 0.5 to 2 Hz at 50 uM by whole cell patch clamp method. The class given is functional, cell-based.
Series [4] has as its system Cardiac muscle cell. Nature of the series: Increase in reverse rate-dependent action potential duration at 50% repolarization in human atrial myocytes at 0.5 to 2 Hz at 50 uM by whole cell patch clamp method. Format: functional, cell-based.
The test system of series [5] is Cardiac muscle cell. Nature of the series: Increase in reverse rate-dependent action potential duration at 90% repolarization in human atrial myocytes at 0.5 to 2 Hz at 50 uM by whole cell patch clamp method. Format: functional, cell-based.
Series [6] concerns the target T1, Voltage-gated potassium channel, IKs; KCNQ1(Kv7.1)/KCNE1(MinK) (Homo sapiens, UniProt P51787+P15382). Nature of the series: Inhibition of human KCNQ1/KCNE1 expressed in HEK293 cells assessed as recovery of current amplitude at 30 uM measured after compound washout by whole cell patch clamp method. Format: cell-based. The note with it: hek293, 30 µM. More on the design: scale not given: the % may be the effect or the level left.

Series [7] has as its target T2, A-type voltage-gated potassium channel KCND3 (Homo sapiens, UniProt Q9UK17).
T2 sequence (Q9UK17 whole entry): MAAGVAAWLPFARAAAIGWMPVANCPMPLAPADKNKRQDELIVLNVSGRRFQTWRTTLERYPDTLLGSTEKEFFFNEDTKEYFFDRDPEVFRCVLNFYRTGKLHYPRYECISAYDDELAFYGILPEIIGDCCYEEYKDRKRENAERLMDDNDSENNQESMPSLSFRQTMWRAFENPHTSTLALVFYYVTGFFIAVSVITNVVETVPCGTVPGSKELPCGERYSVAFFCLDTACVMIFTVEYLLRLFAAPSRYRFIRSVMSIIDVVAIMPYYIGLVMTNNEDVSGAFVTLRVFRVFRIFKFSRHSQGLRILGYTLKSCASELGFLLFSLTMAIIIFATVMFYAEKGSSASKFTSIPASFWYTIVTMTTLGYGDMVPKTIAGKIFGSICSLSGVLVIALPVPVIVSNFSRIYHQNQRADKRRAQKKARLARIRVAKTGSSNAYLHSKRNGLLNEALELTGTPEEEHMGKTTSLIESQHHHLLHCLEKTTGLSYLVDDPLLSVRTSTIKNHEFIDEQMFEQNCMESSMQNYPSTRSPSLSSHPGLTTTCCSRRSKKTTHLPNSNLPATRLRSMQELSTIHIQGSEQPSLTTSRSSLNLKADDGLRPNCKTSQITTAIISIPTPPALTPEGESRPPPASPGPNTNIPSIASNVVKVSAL
Nature of the series: Inhibition of Kv4.3 in human atrial myocytes assessed as recovery time constant of transient outward potassium current amplitude at 10 uM by whole cell patch clamp method (reference value: 102 +/- 12 ms). The class given is cell-based.

Series [8] relates to Heart. In words: Effect on heart rate in New Zealand white rabbit heart under hypokalemic conditions at 30 uM by electrocardiogram (reference value: 157 to 175 /min). The class given is ADME, tissue-based, Oryctolagus cuniculus.
For series [9], the system named is Mus musculus. In words: Acute toxicity in Kunming mouse assessed as mortality at 0.3 g/kg, po administered every 1.5 hrs for 3 times measured for 2 weeks relative to vehicle-treated control. Format: organism-based. The note with it: in vivo, 300 mg/kg, 336 h.
For series [10], the system named is Cardiac muscle cell. In words: Increase in action potential duration at 90% repolarization in human atrial myocytes at 0.5 to 2 Hz at 10 uM by whole cell patch clamp method. Format: functional, cell-based.
Series [11] concerns the target Voltage-gated inwardly rectifying potassium channel KCNH2 (Homo sapiens, UniProt Q12809). In words: Inhibition of human ERG expressed in HEK293 cells assessed as decrease in current amplitude at 30 uM by whole cell patch clamp method. Format: cell-based. The note with it: hek293, 30 µM.
Series [12] has as its system Cardiac muscle cell. In words: Increase in action potential duration at 50% repolarization in human atrial myocytes at 0.5 to 2 Hz at 10 uM by whole cell patch clamp method. The class given is functional, cell-based.
In series [13] the target is Potassium voltage-gated channel subfamily A member 5 (Homo sapiens) (UniProt P22460). Nature of the series: Inhibition of Kv1.5 in human atrial myocytes assessed as decrease in ultra rapidly activating delayed rectifier potassium current amplitude at 40 mV by whole cell patch clamp method. The class given is cell-based.
Sequence of Potassium voltage-gated channel subfamily A member 5 (Homo sapiens) (P22460 whole entry): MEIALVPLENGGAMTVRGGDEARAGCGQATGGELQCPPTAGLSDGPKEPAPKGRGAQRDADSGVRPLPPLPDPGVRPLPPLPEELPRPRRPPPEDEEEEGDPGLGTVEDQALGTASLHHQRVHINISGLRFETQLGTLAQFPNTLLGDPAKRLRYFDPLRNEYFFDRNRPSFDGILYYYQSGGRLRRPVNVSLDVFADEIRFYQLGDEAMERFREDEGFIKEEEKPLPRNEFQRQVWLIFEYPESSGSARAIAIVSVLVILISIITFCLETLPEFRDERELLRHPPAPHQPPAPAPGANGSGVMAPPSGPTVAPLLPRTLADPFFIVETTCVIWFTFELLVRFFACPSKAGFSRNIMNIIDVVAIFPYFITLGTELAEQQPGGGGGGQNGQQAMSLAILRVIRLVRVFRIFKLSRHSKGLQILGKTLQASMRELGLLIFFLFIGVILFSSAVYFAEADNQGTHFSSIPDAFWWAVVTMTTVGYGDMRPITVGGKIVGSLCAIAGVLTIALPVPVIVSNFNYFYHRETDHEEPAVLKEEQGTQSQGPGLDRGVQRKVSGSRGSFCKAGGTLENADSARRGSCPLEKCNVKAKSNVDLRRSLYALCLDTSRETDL
The target is the same in series [14]. Nature of the series: Inhibition of Kv1.5 in human atrial myocytes assessed as decrease in ultra rapidly activating delayed rectifier potassium current amplitude at 3 uM after 8 mins by whole cell patch clamp method. The class given is cell-based.
Series [15] relates to Canis familiaris. In words: Anti-atrial fibrillation activity in bilateral vagal stimulated anesthetized dog assessed as time duration of atrial fibrillation at 100 ms of basic cycle length at 10 mg/kg administered intraduodenally. The class given is functional, Canis lupus familiaris.
The subject of series [16] is Cardiac muscle cell. In words: Prolongation of action potential duration in human atrial myocytes at 2 Hz at 5 to 10 uM by whole cell patch clamp method. Format: functional, cell-based.
Series [17] concerns the target T2, A-type voltage-gated potassium channel KCND3. In words: Inhibition of Kv4.3 in human atrial myocytes assessed as decrease in transient outward potassium current amplitude at 3 to 10 uM by whole cell patch clamp method. The class given is cell-based.
Series [18] relates to Heart. In words: Effect on QTc interval in New Zealand white rabbit heart under hypokalemic conditions at 30 uM by electrocardiogram (reference value: 304.5 to 340.1 ms). The class given is ADME, Oryctolagus cuniculus.
Series [19] concerns Mus musculus. Nature of the series: Acute toxicity in Kunming mouse assessed as abnormal activity at 0.3 g/kg, po administered every 1.5 hrs for 3 times measured for 2 weeks relative to vehicle-treated control. Format: organism-based. Particulars: in vivo, 300 mg/kg, 336 h.
Series [20] deals with T1, Voltage-gated potassium channel, IKs; KCNQ1(Kv7.1)/KCNE1(MinK). Nature of the series: Inhibition of human KCNQ1/KCNE1 expressed in HEK293 cells assessed as decrease in current amplitude at 30 uM by whole cell patch clamp method. The class given is cell-based. Particulars: hek293, 30 µM.
A short description of series [21]: Effect on amplitude of action potential in human atrial myocytes at 5 to 10 uM by whole cell patch clamp method. The class given is cell-based. Particulars: cardiac muscle cell.
The target in series [22] is Potassium voltage-gated channel subfamily A member 5 (Homo sapiens) (UniProt P22460). In words: Inhibition of Kv1.5 in human atrial myocytes assessed as decrease in ultra rapidly activating delayed rectifier potassium tail and step current amplitude at 3 to 30 uM by whole cell patch clamp method. Format: cell-based.
Series [23] concerns the target T1, Voltage-gated potassium channel, IKs; KCNQ1(Kv7.1)/KCNE1(MinK). In words: Inhibition of human KCNQ1/KCNE1 expressed in HEK293 cells assessed as decrease in current amplitude at +20 to +60 mV by whole cell patch clamp method. Format: cell-based.
Series [24] can be described thus: Effect on resting membrane potential in human atrial myocytes at 5 to 10 uM by whole cell patch clamp method. Format: cell-based. Particulars: cardiac muscle cell.
Series [25] deals with Cardiac muscle cell. Nature of the series: Increase in action potential duration at 75% repolarization in human atrial myocytes at 0.5 to 2 Hz at 10 uM by whole cell patch clamp method. The class given is functional, cell-based.
Series [26] relates to Canis familiaris. Nature of the series: Anti-atrial fibrillation activity in anesthetized dog assessed as prolongation of effective refractory time period of left atrium at 200 to 250 ms of basic cycle length at 5 mg/kg administered intraduodenally measured after 1 to 4 hrs relative to vehicle-treated control. The class given is functional, Canis lupus familiaris.
The species entered for the next series is Cavia porcellus. In words: Inhibition of acetylcholine-activated potassium channel in guinea pig atrial myocytes assessed as reversal of carbachol-induced membrane conductance at 3 uM by whole cell patch clamp method. Format: cell-based.

T1 sequence (P51787 whole entry): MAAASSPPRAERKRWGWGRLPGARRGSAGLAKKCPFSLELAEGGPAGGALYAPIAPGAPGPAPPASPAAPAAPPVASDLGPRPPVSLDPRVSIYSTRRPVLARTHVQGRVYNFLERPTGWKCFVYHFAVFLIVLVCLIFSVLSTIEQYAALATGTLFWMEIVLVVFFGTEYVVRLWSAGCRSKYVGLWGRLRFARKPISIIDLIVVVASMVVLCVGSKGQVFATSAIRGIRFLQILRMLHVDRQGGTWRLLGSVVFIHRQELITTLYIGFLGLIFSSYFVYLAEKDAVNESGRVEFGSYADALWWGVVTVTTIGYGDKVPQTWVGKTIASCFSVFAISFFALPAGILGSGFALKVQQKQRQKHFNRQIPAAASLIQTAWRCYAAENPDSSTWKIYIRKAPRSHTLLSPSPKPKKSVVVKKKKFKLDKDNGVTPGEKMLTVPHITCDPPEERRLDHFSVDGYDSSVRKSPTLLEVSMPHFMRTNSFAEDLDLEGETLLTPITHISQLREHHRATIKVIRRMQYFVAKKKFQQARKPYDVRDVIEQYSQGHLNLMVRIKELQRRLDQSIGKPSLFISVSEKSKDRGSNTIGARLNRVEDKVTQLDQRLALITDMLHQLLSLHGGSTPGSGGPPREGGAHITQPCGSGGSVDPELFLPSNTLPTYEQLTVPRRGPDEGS
Sequence of Voltage-gated inwardly rectifying potassium channel KCNH2 (Q12809 whole entry): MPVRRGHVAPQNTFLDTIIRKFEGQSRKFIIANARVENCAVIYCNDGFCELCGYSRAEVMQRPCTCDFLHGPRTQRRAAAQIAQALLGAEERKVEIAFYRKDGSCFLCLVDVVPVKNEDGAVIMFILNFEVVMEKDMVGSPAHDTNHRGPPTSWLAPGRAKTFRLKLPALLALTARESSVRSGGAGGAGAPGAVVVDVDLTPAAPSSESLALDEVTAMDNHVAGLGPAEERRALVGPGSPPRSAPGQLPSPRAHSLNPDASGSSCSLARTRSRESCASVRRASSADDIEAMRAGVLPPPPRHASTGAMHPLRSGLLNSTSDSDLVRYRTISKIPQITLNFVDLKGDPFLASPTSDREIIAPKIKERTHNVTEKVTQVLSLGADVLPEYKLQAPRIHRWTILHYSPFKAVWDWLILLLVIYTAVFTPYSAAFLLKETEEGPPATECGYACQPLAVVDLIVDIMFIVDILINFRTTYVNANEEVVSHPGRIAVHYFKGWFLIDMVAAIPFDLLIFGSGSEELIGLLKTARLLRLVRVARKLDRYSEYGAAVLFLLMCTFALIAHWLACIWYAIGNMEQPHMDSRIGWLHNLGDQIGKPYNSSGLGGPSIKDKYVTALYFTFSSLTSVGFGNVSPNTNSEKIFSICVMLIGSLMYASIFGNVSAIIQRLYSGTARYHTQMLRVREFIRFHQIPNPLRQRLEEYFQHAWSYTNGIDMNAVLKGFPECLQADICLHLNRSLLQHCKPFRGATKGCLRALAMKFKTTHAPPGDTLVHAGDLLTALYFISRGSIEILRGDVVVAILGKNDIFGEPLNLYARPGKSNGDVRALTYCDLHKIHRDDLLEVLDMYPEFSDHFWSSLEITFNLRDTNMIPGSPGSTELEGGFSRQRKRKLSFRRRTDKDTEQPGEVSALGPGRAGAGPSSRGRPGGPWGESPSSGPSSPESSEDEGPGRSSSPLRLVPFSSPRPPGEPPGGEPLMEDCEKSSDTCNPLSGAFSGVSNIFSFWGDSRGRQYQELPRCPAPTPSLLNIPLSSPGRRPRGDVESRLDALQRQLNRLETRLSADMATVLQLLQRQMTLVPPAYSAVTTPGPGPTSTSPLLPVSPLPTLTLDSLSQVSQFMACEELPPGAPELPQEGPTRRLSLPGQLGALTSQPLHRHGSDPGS

On to `CC(C)NCC(O)c1ccc(NS(C)(=O)=O)cc1` (centres undefined) [SOTALOL], for which the Time in the series with Canis familiaris [1] is recorded as 8.5 min. In addition, in the series on Canis familiaris [2], the Activity result is “Toxic”.

As for `Nc1ccncc1`, the result with Cardiac muscle cell [3], in the series on Cardiac muscle cell [4] and in the series on Cardiac muscle cell [5] was Active.

On to `COc1ccc(-c2cc(=O)c3c(O)cc(O)cc3o2)cc1` [ACACETIN], for which the Activity is given as 83% in series [6]; 156 bpm in the series on Heart [8]; “Non-Toxic” in the series with Mus musculus [9]; “Non-Toxic” in the series with Mus musculus [19]; “Non-Toxic” in series [21]; “Non-Toxic” in the series on Canis familiaris [2]. For the same molecule, the Activity result in [24] is given as “Non-Toxic”; in the series on Canis familiaris [26], 10 - 25%. The Time in series [7] is 136 ms; with Canis familiaris [15], 4.3 to 7.11 min; in the series with Heart [18] it was 308.7 ms; in the series on Canis familiaris [1], 5.31 to 6.12 min. In addition, the outcome with Cardiac muscle cell [10], in the series on Cardiac muscle cell [12], with Cardiac muscle cell [16] and with Cardiac muscle cell [25] was Active. Further, the “inhibition (INH)” value in [11] was “Active”; in series [17] it was “Active”; in series [20], “Active”; in series [23] it was “Dose-dependent effect”. Moreover, in [13], the inhibition result was “Dose-dependent effect”. Besides, the inhibition result (in [14]; in series [22]; in the series listed under Cavia porcellus) was “Active” each time.
